# Data as given in publication PMC6403271, “Characterization, mechanism of action and optimization of activity of a novel peptide-peptoid hybrid against bacterial pathogens involved in canine skin infections” (Scientific Reports, 2019).
# Square brackets hold non-standard residues; d marks the D form. Peptide text beside a SMILES is read from it. N(1-naphthylmethyl)Gly = O=C(O)CNCc1cccc2ccccc12; 1Nal = N[C@@H](Cc1cccc2ccccc12)C(=O)O; 2Nal = N[C@@H](Cc1ccc2ccccc2c1)C(=O)O; d2Nal = N[C@H](Cc1ccc2ccccc2c1)C(=O)O; Nphe = O=C(O)CNCc1ccccc1; NBuGly = CCCCNCC(=O)O
# Tests used:
# human red blood cells = assay type: cell-based; conditions: for EC50: red cells of human, 1 h
# Procedure: (§1) Briefly, two-fold serial dilutions (2.35 to 150 μM) of compounds in phosphate buffer saline (PBS) were mixed with equal volume of 0.5% v/v suspension of fresh human red blood cells (RBC) in the same buffer. After 1 h incubation at 37 °C, plates were centrifuged and aliquots of the supernatants were transferred to clear 96-well plates. Absorbance at 414 nm was measured and normalized using a negative (PBS, 0%) and a positive (melittin, 100%) control. The EC10 and EC50 are concentrations at which 10% and 50% of RBC were lysed, respectively, as interpolated graphically by the y-axis intersection of the plotted data.
# [1] = assay type: cell-based, human; conditions: human
# Procedure: as §1
# MRSP C22963 = assay type: cell-based, Staphylococcus pseudintermedius; conditions: 18 h
# Procedure: (§2) Activity of B1 was tested on 50P. aeruginosa isolates and 57S. pseudintermedius isolates (including 7 MRSP) that had been isolated in the diagnostic laboratory Sund Vet Diagnostik (University of Copenhagen) from various infections in dogs between 2009 and 2011. Representative MRSP (C22963), MSSA, and P. aeruginosa (26314) were used for testing the first set of B1 analogues.
# (§3) MIC determination was performed by broth microdilution according to the Clinical and Laboratory Standard Institute (CLSI, M31-A3, 2008)[62]. In brief, each bacterial strain was diluted to concentration of 5 × 10^5 CFU/mL in Mueller Hinton broth II (MHB II) media (Oxoid) and added to a two-fold serial dilution of peptides and peptide-peptoid hybrids concentrations ranging from 1 to 64 µg/ml in 96-well plates (Nunc Internationals, Rochester, NY). The MICs were determined as a lowest concentration showing no visible growth after incubation for 18 hours at 37 °C. Experiments were performed in triplicates on two different days.
# MSSA (ATCC 29213) = assay type: cell-based, Staphylococcus aureus; conditions: ATCC 29213, 18 h
# Procedure: as §2, §3
# P. aeruginosa (26314) = assay type: cell-based, Pseudomonas aeruginosa; conditions: 26314, 18 h
# Procedure: Activity of B1 was tested on […]. aeruginosa isolates and […]. pseudintermedius isolates (including 7 MRSP) that had been isolated in the diagnostic laboratory Sund Vet Diagnostik (University of Copenhagen) from various infections in dogs between 2009 and 2011. Representative […], and P. aeruginosa (26314) were used for testing the first set of B1 analogues. For antibacterial spectrum the following strains were used: Corynebacterium auriscanis, 31551, (54 C6, dog, ear, 2013); Enterococcus faecalis, 27404, (17 C7, dog, wound, 2011); Enterococcus faecium, 30951, (24 C1, dog, ear, 2013); Streptococcus canis, 26740-1, (14 H1, dog, ear, 2010); Staphylococcus aureus, 27266, (16 G9, dog, skin, 2010); Staphylococcus aureus, 27266, (16 G9, dog, skin, 2010); Staphylococcus pseudintermedius 22963, (3 B9, dog, 2007). Acinetobacter baumannii, 27065, (16 D1, dog, wound, 2010); E. coli, 30235, 23 A6, dog, wound, 2012; Klebsiella pneumoniae, 26233, (11 H5, dog, wound, 2010); Pasteurella canis, 31096, (24 C8, dog, skin, 2013); Proteus mirabilis, 25178, (9 A4, dog, ear, 2009); Pseudomonas aeruginosa 26314, 12 C5, dog, urine, 2010). MIC determination was performed by broth microdilution according to the Clinical and Laboratory Standard Institute (CLSI, […]-A3, 2008)[62]. In brief, each bacterial strain was diluted to concentration of 5 × 10^5 CFU/mL in Mueller Hinton broth II (MHB II) media (Oxoid) and added to a two-fold serial dilution of peptides and peptide-peptoid hybrids concentrations ranging from 1 to 64 μg/ml in 96-well plates (Nunc Internationals, Rochester, NY). The MICs were determined as a lowest concentration showing no visible growth after incubation for 18 hours at 37 °C. Experiments were performed in triplicates on two different days.
Structure (SMILES),Haemolysis EC10 (human red blood cells) [µM],EC50 (human red blood cells) [µM],"hemolysis at 1 h, 150 µM [1] [%]",Minimum Inhibitory Concentration MRSP C22963 (MRSP C22963) [µg/mL],Minimum Inhibitory Concentration MSSA (ATCC 29213) (MSSA (ATCC 29213)) [µg/mL],Minimum Inhibitory Concentration P. aeruginosa (26314) (P. aeruginosa (26314)) [µg/mL]
"CC(C)C[C@H](NC(=O)[C@H](CCCCN)NC(=O)[C@H](CCCCN)NC(=O)[C@@H](N)CCCCN)C(=O)N[C@@H](Cc1cccc2ccccc12)C(=O)N[C@@H](Cc1ccccc1)C(=O)N[C@@H](Cc1cccc2ccccc12)C(N)=O [Compound 7, Lys-Lys-Lys-Leu-(1-Nal)Ala-Phe-(1-Nal)Ala] (H-KKKL[1Nal]F[1Nal]-NH2; N-terminus assumed)",8,140,55,8,16,16
"CC(C)C[C@H](NC(=O)[C@H](CCCCN)NC(=O)[C@@H](N)CCCCN)C(=O)N[C@@H](CCCCN)C(=O)N[C@@H](Cc1cccc2ccccc12)C(=O)N[C@@H](Cc1ccccc1)C(=O)N[C@@H](Cc1cccc2ccccc12)C(N)=O [Compound 6, Lys-Lys-Leu-Lys-(1-Nal)Ala-Phe-(1-Nal)Ala] (H-KKLK[1Nal]F[1Nal]-NH2; N-terminus assumed)",5,58,96,8,32,8
"CC(C)C[C@H](NC(=O)[C@H](Cc1ccc2ccccc2c1)NC(=O)[C@H](Cc1ccccc1)NC(=O)[C@@H](N)Cc1ccc2ccccc2c1)C(=O)N[C@@H](CCCCN)C(=O)N[C@@H](CCCCN)C(=O)N[C@@H](CCCCN)C(N)=O [Compound 13, (2-Nal)Ala-Phe-(2-Nal)Ala-Leu-Lys-Lys-Lys] (H-[2Nal]F[2Nal]LKKK-NH2; N-terminus assumed)",110,,15,8,32,>64
"CC(C)C[C@@H](NC(=O)[C@H](CCCCN)NC(=O)[C@@H](N)CCCCN)C(=O)N[C@@H](CCCCN)C(=O)N[C@H](Cc1ccc2ccccc2c1)C(=O)N[C@H](Cc1ccccc1)C(=O)N[C@H](Cc1ccc2ccccc2c1)C(N)=O [Compound 17, Lys-Lys-leu-Lys-(2-Nal)ala-phe-(2-Nal)ala] (H-KK[dL]K[d2Nal][dF][d2Nal]-NH2; N-terminus assumed)",8,,40,8,16,32
"CC(C)C[C@H](NC(=O)[C@H](Cc1cccc2ccccc12)NC(=O)[C@H](Cc1ccccc1)NC(=O)[C@@H](N)Cc1cccc2ccccc12)C(=O)N[C@@H](CCCCN)C(=O)N[C@@H](CCCCN)C(=O)N[C@@H](CCCCN)C(N)=O [Compound 12, (1-Nal)Ala-Phe-(1-Nal)Ala-Leu-Lys-Lys-Lys] (H-[1Nal]F[1Nal]LKKK-NH2; N-terminus assumed)",,,< 8,16,32,>64
"CCCCN(CC(=O)N[C@@H](CCCCN)C(=O)N[C@@H](CCCCN)C(=O)N[C@@H](CCCCN)C(N)=O)C(=O)CN(Cc1cccc2ccccc12)C(=O)CN(Cc1ccccc1)C(=O)CNCc1cccc2ccccc12 [Compound 4, (N1-Nal)Gly-(NPhe)Gly-(N1-Nal)Gly-(NBu)Gly-Lys-Lys-Lys] (H-[N(1-naphthylmethyl)Gly][Nphe][N(1-naphthylmethyl)Gly][NBuGly]KKK-NH2; N-terminus assumed)",54,,24,8,16,32
